According to ChEMBL document CHEMBL3826915, “Design and comparative anticonvulsant activity assessment of CNS-active alkyl-carbamoyl imidazole derivatives” (Bioorg Med Chem, 2016):
Each block holds one compound with its values, some of them ahead of it. Calls of active or inactive are those of the source. No cut-off for these calls is given here.

What was measured:
Homo sapiens = assay: Anticonvulsant activity in patient assessed as improvement in seizure control at 600 mg/day administered up to 1 year; type: functional
[1] = Clearance in human; type: ADME, organism-based; conditions: in vivo
[2] = Volume of distribution in human; type: ADME, organism-based; conditions: in vivo
[3] = Half life in human; type: ADME, organism-based; conditions: in vivo
Mus musculus [4] = assay: Anticonvulsant activity in albino CF1 mouse assessed as protection against maximal electroshock-induced seizures at 100 mg/kg, ip after 0.5 hrs; type: functional, organism-based
Mus musculus [5] = assay: Anticonvulsant activity in albino CF1 mouse assessed as protection against maximal electroshock-induced seizures at 30 mg/kg, ip after 2 hrs; type: functional, organism-based
Mus musculus [6] = assay: Anticonvulsant activity in albino CF1 mouse assessed as protection against 32 mA current-induced seizure at 30 mg/kg, ip after 0.5 hrs by 6 Hz psychomotor test; type: functional, organism-based
Mus musculus [7] = assay: Anticonvulsant activity in albino CF1 mouse assessed as protection against 32 mA current-induced seizure at 30 mg/kg, ip after 2 hrs by 6 Hz psychomotor test; type: functional, organism-based
Mus musculus [8] = assay: Anticonvulsant activity in albino CF1 mouse assessed as protection against 44 mA current-induced seizure at 50 mg/kg, ip after 0.25 hrs by 6 Hz psychomotor test; type: functional, organism-based
Mus musculus [9] = assay: Anticonvulsant activity in albino CF1 mouse assessed as protection against 44 mA current-induced seizure at 50 mg/kg, ip after 1 hr by 6 Hz psychomotor test; type: functional, organism-based
Mus musculus [10] = assay: Anticonvulsant activity in albino CF1 mouse assessed as protection against 44 mA current-induced seizure at 50 mg/kg, ip after 2 hrs by 6 Hz psychomotor test; type: functional, organism-based
Mus musculus [11] = assay: Neurotoxicity in albino CF1 mouse assessed as behavioral impairment at 30 mg/kg, ip after 0.5 hrs by rotorod test; type: toxicity, organism-based; conditions: in vivo
Mus musculus [12] = assay: Neurotoxicity in albino CF1 mouse assessed as behavioral impairment at 300 mg/kg, ip after 0.5 hrs by rotorod test; type: toxicity, organism-based; conditions: in vivo
Mus musculus [13] = assay: Neurotoxicity in albino CF1 mouse assessed as behavioral impairment at 30 mg/kg, ip after 2 hrs by rotorod test; type: toxicity, organism-based; conditions: in vivo
Mus musculus [14] = assay: Neurotoxicity in albino CF1 mouse assessed as behavioral impairment at 100 mg/kg, ip after 2 hrs by rotorod test; type: toxicity, organism-based; conditions: in vivo
Mus musculus [15] = assay: Neurotoxicity in albino CF1 mouse assessed as behavioral impairment at 300 mg/kg, ip after 2 hrs by rotorod test; type: toxicity, organism-based; conditions: in vivo
Mus musculus [16] = assay: Neurotoxicity in albino CF1 mouse assessed as behavioral impairment at 50 mg/kg, ip after 0.25 hrs by rotorod test; type: toxicity, organism-based; conditions: in vivo
Mus musculus [17] = assay: Neurotoxicity in albino CF1 mouse assessed as behavioral impairment at 50 mg/kg, ip after 0.5 hrs by rotorod test; type: toxicity, organism-based; conditions: in vivo
Mus musculus [18] = assay: Neurotoxicity in albino CF1 mouse assessed as behavioral impairment at 50 mg/kg, ip after 1 hr by rotorod test; type: toxicity, organism-based; conditions: in vivo
Mus musculus [19] = assay: Neurotoxicity in albino CF1 mouse assessed as behavioral impairment at 50 mg/kg, ip after 2 hrs by rotorod test; type: toxicity, organism-based; conditions: in vivo
Rattus norvegicus [20] = assay: Anticonvulsant activity in albino Sprague-Dawley rat assessed as protection against maximal electroshock-induced seizures at 30 mg/kg, po after 1 hr; type: functional, organism-based
Rattus norvegicus [21] = assay: Anticonvulsant activity in albino Sprague-Dawley rat assessed as protection against maximal electroshock-induced seizures at 30 mg/kg, po after 2 hrs; type: functional, organism-based
Rattus norvegicus [22] = assay: Neurotoxicity in albino Sprague-Dawley rat assessed as behavioral impairment at 30 mg/kg, ip after 0.25 hrs by rotorod test; type: toxicity, organism-based; conditions: in vivo
Rattus norvegicus [23] = assay: Neurotoxicity in albino Sprague-Dawley rat assessed as behavioral impairment at 30 mg/kg, po after 0.25 hrs by rotorod test; type: toxicity, organism-based; conditions: in vivo
Rattus norvegicus [24] = assay: Neurotoxicity in albino Sprague-Dawley rat assessed as behavioral impairment at 30 mg/kg, ip after 0.5 hrs by rotorod test; type: toxicity, organism-based; conditions: in vivo
Rattus norvegicus [25] = assay: Neurotoxicity in albino Sprague-Dawley rat assessed as behavioral impairment at 30 mg/kg, po after 0.5 hrs by rotorod test; type: toxicity, organism-based; conditions: in vivo
Rattus norvegicus [26] = assay: Neurotoxicity in albino Sprague-Dawley rat assessed as behavioral impairment at 30 mg/kg, ip after 1 hr by rotorod test; type: toxicity, organism-based; conditions: in vivo
Rattus norvegicus [27] = assay: Neurotoxicity in albino Sprague-Dawley rat assessed as behavioral impairment at 30 mg/kg, po after 1 hr by rotorod test; type: toxicity, organism-based; conditions: in vivo
Rattus norvegicus [28] = assay: Neurotoxicity in albino Sprague-Dawley rat assessed as behavioral impairment at 30 mg/kg, ip after 2 hrs by rotorod test; type: toxicity, organism-based; conditions: in vivo
Rattus norvegicus [29] = assay: Neurotoxicity in albino Sprague-Dawley rat assessed as behavioral impairment at 30 mg/kg, po after 2 hrs by rotorod test; type: toxicity, organism-based; conditions: in vivo
Rattus norvegicus [30] = assay: Anticonvulsant activity in ip dosed albino Sprague-Dawley rat assessed as protection against maximal electroshock-induced seizures; type: functional
Rattus norvegicus [31] = assay: Anticonvulsant activity in ip dosed albino Sprague-Dawley rat assessed as protection against maximal electroshock-induced seizures by measuring time to peak effect; type: functional
[32] = Protective index, ratio of TD50 for neurotoxicity in ip dosed albino Sprague-Dawley rat to ED50 for anticonvulsant activity in ip dosed maximal electroshock-induced seizure albino Sprague-Dawley rat model; type: toxicity, organism-based; conditions: in vivo, read-out: Ratio TD50/ED50
Rattus norvegicus [33] = assay: Anticonvulsant activity in ip dosed albino Sprague-Dawley rat assessed as protection against subcutaneous metrazol-induced seizures; type: functional
[34] = Protective index, ratio of TD50 for neurotoxicity in ip dosed albino Sprague-Dawley rat to ED50 for anticonvulsant activity in ip dosed subcutaneous metrazol-induced seizure albino Sprague-Dawley rat model; type: toxicity, organism-based; conditions: in vivo, read-out: Ratio TD50/ED50
[35] = Neurotoxicity in ip dosed albino Sprague-Dawley rat assessed as motor impairment by rotorod test; type: toxicity, organism-based; conditions: in vivo
Rattus norvegicus [36] = assay: Anticonvulsant activity in ip dosed albino Sprague-Dawley rat assessed as protection against subcutaneous metrazol-induced seizures by measuring time to peak effect; type: functional
Mus musculus [37] = assay: Anticonvulsant activity in ip dosed albino CF1 mouse assessed as protection against maximal electroshock-induced seizures; type: functional
[38] = Protective index, ratio of TD50 for neurotoxicity in ip dosed albino CF1 mouse to ED50 for anticonvulsant activity in ip dosed maximal electroshock-induced seizure albino CF1 mouse model; type: toxicity, organism-based; conditions: in vivo, read-out: Ratio TD50/ED50
Mus musculus [39] = assay: Anticonvulsant activity in ip dosed albino CF1 mouse assessed as protection against subcutaneous metrazol-induced seizures; type: functional
[40] = Protective index, ratio of TD50 for neurotoxicity in ip dosed albino CF1 mouse to ED50 for anticonvulsant activity in ip dosed […] metrazol-induced seizure albino CF1 mouse model; type: toxicity, organism-based; conditions: in vivo, read-out: Ratio TD50/ED50
Mus musculus [41] = assay: Anticonvulsant activity in ip dosed albino CF1 mouse assessed as protection against maximal electroshock-induced seizures by measuring time to peak effect; type: functional
Mus musculus [42] = assay: Anticonvulsant activity in ip dosed albino CF1 mouse assessed as protection against subcutaneous metrazol-induced seizures by measuring time to peak effect; type: functional
Mus musculus [43] = assay: Anticonvulsant activity in ip dosed albino CF1 mouse assessed as protection against 6 Hz current-induced seizures by psychomotor test; type: functional
Mus musculus [44] = assay: Anticonvulsant activity in ip dosed albino CF1 mouse assessed as protection against 6 Hz current-induced seizure by measuring time to peak effect; type: functional
[45] = Neurotoxicity in ip dosed albino CF1 mouse assessed as motor impairment by rotorod test; type: toxicity, organism-based; conditions: in vivo

Compound: O=C(Cn1ccnc1)c1ccc2ccccc2c1 [NAFIMIDONE]
- Activity (Homo sapiens): 33%

- clearance [1]: 5 mL/min/kg
- Vd [2]: 3 L/kg
- half-life [3]: 5 h
Compound: OC(Cn1ccnc1)c1ccc(CCc2ccccc2)cc1 (stereo unspecified) [DENZIMOL]

Compound: CCCC(COC(=O)NCCCn1ccnc1)C(C)CC (stereo unspecified)
- Activity (Mus musculus [4]): Active
- Activity (Mus musculus [5]): inactive
- Activity (Mus musculus [6]): inactive
- Activity (Mus musculus [7]): inactive
- Activity (Mus musculus [8]): inactive
- Activity (Mus musculus [9]): inactive
- Activity (Mus musculus [10]): inactive
- Activity (Mus musculus [11]): Non-toxic
- Activity (Mus musculus [12]): Toxic
- Activity (Mus musculus [13]): Non-toxic
- Activity (Mus musculus [14]): Non-toxic
- Activity (Mus musculus [15]): Toxic
- Activity (Mus musculus [16]): Non-toxic
- Activity (Mus musculus [17]): Non-toxic
- Activity (Mus musculus [18]): Non-toxic
- Activity (Mus musculus [19]): Non-toxic
- Activity (Rattus norvegicus [20]): inactive
- Activity (Rattus norvegicus [21]): inactive
- Activity (Rattus norvegicus [22]): Non-toxic
- Activity (Rattus norvegicus [23]): Non-toxic
- Activity (Rattus norvegicus [24]): Non-toxic
- Activity (Rattus norvegicus [25]): Non-toxic
- Activity (Rattus norvegicus [26]): Non-toxic
- Activity (Rattus norvegicus [27]): Non-toxic
- Activity (Rattus norvegicus [28]): Non-toxic
- Activity (Rattus norvegicus [29]): Non-toxic
- ED50 (Rattus norvegicus [30]): 20 mg/kg
- Time (Rattus norvegicus [31]): 0.25 h
- selectivity ratio [32]: 4.8
- ED50 (Rattus norvegicus [33]): > 95 mg/kg
- selectivity ratio [34]: 1
- TD50 [35]: 96 mg/kg
- Time (Rattus norvegicus [36]): 0.25 h
- ED50 (Mus musculus [37]): 24 mg/kg
- selectivity ratio [38]: 2.8
- ED50 (Mus musculus [39]): > 100 mg/kg
- selectivity ratio [40]: 0.67
- Time (Mus musculus [41]): 0.5 h
- Time (Mus musculus [42]): 0.5 h
- ED50 (Mus musculus [43]): inactive
- Time (Mus musculus [44]): 0.5 h
- TD50 [45]: 67 mg/kg
